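Step 1: Grow cells in 96-well plates. Step 2: Expose to compound for 48 hours at 5 concentrations. Step 3: Interpolate endpoints linearly; if unreached, use highest concentration. GI50 = concentration required for 50% inhibition of growth.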 Calls of active or inactive are those of the source. Cut-off read from the data, not from the text of the source: active = GI50 up to about 1.1 µM and inactive = higher.
Tests used:
Experiment in all cases: DTP human tumour cell line panel, 48 h
[1] = test system: ACHN
[2] = test system: CCRF-CEM
[3] = test system: HCC 2998
[4] = test system: HCT-15
[5] = test system: HT-29
[6] = test system: KM12
[7] = test system: LOX IMVI
[8] = test system: LXFL 529
[9] = test system: M14
[10] = test system: NCI-H23
[11] = test system: NCI-H522
[12] = test system: OVCAR-4
[13] = test system: OVCAR-8
[14] = test system: SNB-19
[15] = test system: UACC-62
[16] = test system: XF498
[17] = test system: UACC-257
[18] = test system: DU-145
[19] = test system: NCI/ADR-RES
[20] = test system: T47D

Row | Compound | GI50 [1] | GI50 [2] | GI50 [3] | GI50 [4] [µM] | GI50 [5] | GI50 [6] | GI50 [7] | GI50 [8] | GI50 [9] | GI50 [10] | GI50 [11] | GI50 [12] | GI50 [13] | GI50 [14] | GI50 [15] | GI50 [16] | GI50 [17] | GI50 [18] | GI50 [19] | GI50 [20]
1 | Cc1ccc2c(CC(=O)O)cc(=O)oc2c1 | > 100 µM (inactive) | > 100 µM (inactive) | > 100 µM (inactive) | > 100 | > 100 µM (inactive) | > 100 µM (inactive) | > 100 µM (inactive) | > 100 µM (inactive) | > 100 µM (inactive) | > 100 µM (inactive) | > 100 µM (inactive) | > 100 µM (inactive) | > 100 µM (inactive) | > 100 µM (inactive) | > 100 µM (inactive) | 2.86 µM (inactive) | – | – | – | –
2 | CC(/C=C/c1ccccc1)=N\N=C(C)\C=C\c1ccccc1 | > 100 µM (inactive) | > 100 µM (inactive) | > 100 µM (inactive) | > 100 | > 100 µM (inactive) | > 100 µM (inactive) | > 100 µM (inactive) | > 100 µM (inactive) | > 100 µM (inactive) | > 100 µM (inactive) | > 100 µM (inactive) | > 100 µM (inactive) | > 100 µM (inactive) | – | – | > 100 µM (inactive) | > 100 µM (inactive) | – | – | –
3 | COC(=O)/C(=N\NC(=O)c1ccccc1O)C(C#N)c1ccccc1 (stereo not drawn) | 19.7 µM (inactive) | 19.4 µM (inactive) | > 50 µM (inactive) | 17.4 | > 50 µM (inactive) | 24.1 µM (inactive) | 19.4 µM (inactive) | 21.5 µM (inactive) | 31.4 µM (inactive) | 20.1 µM (inactive) | 17.2 µM (inactive) | > 43.2 µM (inactive) | 23.7 µM (inactive) | 23.2 µM (inactive) | 12.1 µM (inactive) | 17.3 µM (inactive) | 25.9 µM (inactive) | – | – | –
4 | CCCN(CCCC(NC(C)=O)C(=O)NCc1ccccc1)C(=O)N(C)N=O (stereo not drawn) | > 100 µM (inactive) | > 100 µM (inactive) | > 100 µM (inactive) | > 100 | > 100 µM (inactive) | > 100 µM (inactive) | > 100 µM (inactive) | > 100 µM (inactive) | > 100 µM (inactive) | > 100 µM (inactive) | > 100 µM (inactive) | > 100 µM (inactive) | > 100 µM (inactive) | – | > 100 µM (inactive) | > 100 µM (inactive) | > 100 µM (inactive) | – | – | –
5 | Cc1ccc(/C=C/C(=O)C(C)(C)CN2CCCCC2)cc1 | 11.2 µM (inactive) | 3.11 µM (inactive) | 15 µM (inactive) | 3.76 | 3.24 µM (inactive) | 3.28 µM (inactive) | 9.55 µM (inactive) | 6.62 µM (inactive) | 7.31 µM (inactive) | 11.5 µM (inactive) | 3.33 µM (inactive) | 10.1 µM (inactive) | 2.81 µM (inactive) | 2.57 µM (inactive) | 11.1 µM (inactive) | 11.7 µM (inactive) | 7.76 µM (inactive) | – | – | –
6 | Cc1c2ccccc2c(C)c2c3c(ccc12)C(=O)C=CC3=O | 17.8 µM (inactive) | 2.49 µM (inactive) | 35.3 µM (inactive) | 19.1 | 28 µM (inactive) | 27.3 µM (inactive) | 25.8 µM (inactive) | 17.3 µM (inactive) | 30 µM (inactive) | 32.3 µM (inactive) | 13.6 µM (inactive) | 23.4 µM (inactive) | 14.9 µM (inactive) | > 100 µM (inactive) | 35.8 µM (inactive) | 17 µM (inactive) | 16.3 µM (inactive) | – | – | –
7 | CCN(CC)c1ccc2c(c1)Oc1ccc(N(CC)CC)cc1C21Oc2ccccc2-c2c1c1ccccc1n2CC (stereo not drawn) | 1.32 µM (inactive) | 1.44 µM (inactive) | 3.07 µM (inactive) | 3.82 | 1.22 µM (inactive) | – | 3.24 µM (inactive) | 3.36 µM (inactive) | 3.07 µM (inactive) | 2.07 µM (inactive) | 1.3 µM (inactive) | 3.58 µM (inactive) | 6.18 µM (inactive) | 6.87 µM (inactive) | 1.85 µM (inactive) | 1.06 µM (active) | 2.89 µM (inactive) | – | – | –
8 | C=CC/N=C1/N=C(CC(=O)OCC)CS1 | > 100 µM (inactive) | > 100 µM (inactive) | > 100 µM (inactive) | > 100 | > 100 µM (inactive) | > 100 µM (inactive) | > 100 µM (inactive) | > 100 µM (inactive) | > 100 µM (inactive) | > 100 µM (inactive) | > 100 µM (inactive) | > 100 µM (inactive) | > 100 µM (inactive) | > 100 µM (inactive) | > 100 µM (inactive) | > 100 µM (inactive) | > 100 µM (inactive) | – | – | –
9 | COc1cc2c(c(OC)c1OC)-c1ccc(SC)c(=O)cc1C(CC(=O)Oc1cccc([N+](=O)[O-])c1)C2 (stereo not drawn) | 0.891 µM (active) | 0.745 µM (active) | 0.161 µM (active) | 0.4 | 0.362 µM (active) | 0.424 µM (active) | 0.867 µM (active) | 0.619 µM (active) | 0.412 µM (active) | 0.78 µM (active) | 0.493 µM (active) | 5.66 µM (inactive) | 0.767 µM (active) | 4.62 µM (inactive) | 0.356 µM (active) | 0.74 µM (active) | 2.89 µM (inactive) | – | – | –
10 | Cc1ccc(C)c(NC2=NC(=O)C(CC(=O)Nc3ccc(Cl)cc3Cl)S2)c1 (stereo not drawn) | > 100 µM (inactive) | 41.4 µM (inactive) | 46 µM (inactive) | > 100 | > 100 µM (inactive) | 52.6 µM (inactive) | > 100 µM (inactive) | 58.7 µM (inactive) | > 100 µM (inactive) | 43.8 µM (inactive) | 24 µM (inactive) | 49.2 µM (inactive) | 66.1 µM (inactive) | 48.5 µM (inactive) | 28.9 µM (inactive) | 32.7 µM (inactive) | > 100 µM (inactive) | – | – | –
11 | C=C1CC2CC[C@@]34C[C@H]5O[C@@H]6C(O[C@H]7CC[C@H](CC(=O)OC8[C@H](C)C9OC%10C[C@]%11(C[C@@H]%12O[C@]%13(C[C@H](C)[C@@H]%14O[C@H]([C@H](O)C[C@H](O)CO)C[C@@H]%14O%13)C[C@H](C)[C@@H]%12O%11)OC%10CC9O[C@H]8C[C@H]8O[C@H](CC[C@@H]1O2)C[C@@H](C)C8=C)O[C@H]7[C@@H]6O3)[C@@H]5O4 (stereo partly drawn) | 0.00411 µM (active) | 0.000588 µM (active) | 0.00201 µM (active) | 0.000935 | 0.000372 µM (active) | 0.00046 µM (active) | 0.000597 µM (active) | 0.00129 µM (active) | 0.00143 µM (active) | 0.000605 µM (active) | 0.000211 µM (active) | 0.00505 µM (active) | 0.00222 µM (active) | 0.00191 µM (active) | 0.000469 µM (active) | 0.00123 µM (active) | 0.0008 µM (active) | 0.000113 µM (active) | 0.000516 µM (active) | 2.65 µM (inactive)
12 | [C-]#[N+]C(C)(C)C[C@H]1CC(C)C2CCC(C)C3([N+]#[C-])CCC(=C)C1[C@H]23 (stereo partly drawn) | 0.169 µM (active) | 2.37 µM (inactive) | 5.83 µM (inactive) | – | 0.413 µM (active) | 0.308 µM (active) | 0.147 µM (active) | 1.82 µM (inactive) | 1.95 µM (inactive) | 0.509 µM (active) | 1.95 µM (inactive) | 0.234 µM (active) | 0.227 µM (active) | 2.22 µM (inactive) | 2.82 µM (inactive) | 2.62 µM (inactive) | 0.959 µM (active) | – | – | –
13 | COc1ccc(/C=C/c2cc(OC)c(OC)c(OC)c2)cc1 | 5.98 µM (inactive) | 1.66 µM (inactive) | 3.7 µM (inactive) | 2.57 | 3.2 µM (inactive) | 3.3 µM (inactive) | 5.52 µM (inactive) | 31.8 µM (inactive) | 42 µM (inactive) | 5.81 µM (inactive) | 2.85 µM (inactive) | 41.5 µM (inactive) | 15.8 µM (inactive) | 13.6 µM (inactive) | 3.25 µM (inactive) | 0.592 µM (active) | > 100 µM (inactive) | – | – | –

— ChEMBL document CHEMBL1201862, “PubChem BioAssay data set” (2004)
